From US9029377B2, “Platelet-activating factor receptor antagonists” (Merck Sharp & Dohme Corp., priority 2009, dated 2015) come the findings set out here.

The test concerns the target PAFR (Homo sapiens, UniProt P25105). As to the kind of experiment: PAF Binding Assay (PAFR binding).

The IC50 is the midpoint of a concentration-inhibition curve. High values mean lower potency, low ones higher potency.

Chain of PAFR (P25105 whole entry): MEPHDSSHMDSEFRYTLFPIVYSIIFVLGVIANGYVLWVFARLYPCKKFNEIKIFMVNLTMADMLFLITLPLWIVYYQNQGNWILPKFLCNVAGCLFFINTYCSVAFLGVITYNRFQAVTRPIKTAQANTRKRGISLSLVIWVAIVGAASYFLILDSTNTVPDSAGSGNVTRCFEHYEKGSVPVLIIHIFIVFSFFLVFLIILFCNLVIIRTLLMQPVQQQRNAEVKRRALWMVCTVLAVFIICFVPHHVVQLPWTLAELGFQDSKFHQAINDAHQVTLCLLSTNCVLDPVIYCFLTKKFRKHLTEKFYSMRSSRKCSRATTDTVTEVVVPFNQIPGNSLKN

`O=S(=O)(N[C@H]1CCC[C@@H](n2cnnc2)C1)c1ccc(-c2ccc(OCC(F)(F)F)cc2)c(F)c1` [Compound 2Eb, 2-fluoro-N-[(1S,3R)-3-(4H-1,2,4-triazol-4-yl)cyclohexyl]-4′-(2,2,2-trifluoroethoxy)biphenyl-4-sulfonamide] registered an IC50 of 0.7 nM.

“3-isoxazol-5-yl-N-[(1R,5S)-3,3-difluoro-5-(3-methyl-4H-1,2,4-triazol-4-yl)cyclohexyl]-5-(trifluoromethyl)benzenesulfonamide [Compound 9Ad]” displayed an IC50 of 34 nM.

`CCc1cc(-c2ccc(F)cc2)ccc1S(=O)(=O)N[C@H]1CCC[C@@H](n2cnnc2)C1` [Compound 2An, 3-ethyl-4′-fluoro-N-[(1S,3R)-3-(4H-1,2,4-triazol-4-yl)cyclohexyl]benzenesulfonamide] yielded an IC50 of 17 nM.

`Cc1nncn1[C@@H]1CCC[C@H](NS(=O)(=O)c2ccc(-c3ccc(OC(F)(F)F)cc3)cc2F)C1` [Compound 2Jg, 3-fluoro-N-[(1S,3R)-3-(3-methyl-4H-1,2,4-triazol-4-yl)cyclohexyl]-4′-(trifluoromethoxy)biphenyl-4-sulfonamide] had an IC50 of 10 nM.

For `Cc1nncn1[C@@H]1CCC[C@H](NS(=O)(=O)c2ccc(-c3ccc(OC(F)(F)F)cc3)cc2OC(F)(F)F)C1` [Compound 2Bbd, N-[(1S,3R)-3-(3-methyl-4H-1,2,4-triazol-4-yl)cyclohexyl]-3,4′-bis(trifluoromethoxy)biphenyl-4-sulfonamide], the half-maximal inhibitory concentration (IC50) worked out at 6.2 nM.

`O=S(=O)(N[C@H]1CCC[C@@H](n2cnnc2)C1)c1ccc(-c2noc(C3CCC3)n2)cc1C1CC1` [Compound 2Kf, 4-(5-cyclobutyl-1,2,4-oxadiazol-3-yl)-2-cyclopropyl-N-[(1S,3R)-3-(4H-1,2,4-triazol-4-yl)cyclohexyl]benzenesulfonamide] displayed a 50% inhibitory concentration (IC50) of 2.8 nM.

Consider `O=S(=O)(N[C@H]1CCC[C@@H](n2cnnc2)C1)c1ccc(-c2ccc(OCC(F)(F)F)nc2)cc1F` [Compound 2Ih, 2-fluoro-N-[(1S,3R)-3-(4H-1,2,4-triazol-4-yl)cyclohexyl]-4-[6-(2,2,2-trifluoroethoxy)pyridin-3-yl]benzenesulfonamide], for which the IC50 stood at 4 nM.

As for `O=S(=O)(N[C@H]1CCC[C@@H](n2cnnc2)C1)c1ccc(-c2noc(C3CC3)n2)cc1C1CC1` [Compound 2Ka, 2-cyclopropyl-4-(5-cyclopropyl-1,2,4-oxadiazol-3-yl)-N-[(1S,3R)-3-(4H-1,2,4-triazol-4-yl)cyclohexyl]benzenesulfonamide], the 50% inhibitory concentration (IC50) came out at 2.7 nM.

The compound `O=S(=O)(N[C@H]1CCC[C@@H](n2cnnc2)C1)c1cc(-c2cccc3cnccc23)cc(C(F)(F)F)c1` [Compound 3Az, 3-isoquinolin-5-yl-N-[(1S,3R)-3-(4H-1,2,4-triazol-4-yl)cyclohexyl]-5-(trifluoromethyl)benzenesulfonamide] yielded an IC50 of 10 nM.

`O=S(=O)(N[C@H]1CCC[C@@H](n2cnnc2)C1)c1cc(Cl)cc(Cl)c1` [2 Mh, 3,5-dichloro-N-[(1S,3R)-3-(4H-1,2,4-triazol-4-yl)cyclohexyl]benzenesulfonamide] gave a half-inhibitory concentration (IC50) of 194 nM.

Regarding `O=S(=O)(N[C@H]1CCC[C@@H](n2cnnc2)C1)c1cc(-c2cccn3cnnc23)cc(C(F)(F)F)c1` [Compound 3d], the half-inhibitory concentration (IC50) came out at 3.1 nM. This IC50 is about 63-fold lower than that of the compound before.

In turn, `O=S(=O)(N[C@@H]1C[C@H](n2cnnc2)CC(F)(F)C1)c1cc(-c2cccc3cccnc23)cc(C(F)(F)F)c1` [Compound 3Cd, N-[(1R,5S)-3,3-difluoro-5-(4H-1,2,4-triazol-4-yl)cyclohexyl]-3-quinolin-8-yl-5-(trifluoromethyl)benzenesulfonamide] displayed an IC50 of 4.8 nM.

As to `Cc1nncn1[C@@H]1CCC[C@H](NS(=O)(=O)c2ccc(-c3ccc(OC(F)F)cc3)c(F)c2)C1` [Compound 2Fc, 4′-(difluoromethoxy)-2-fluoro-N-[(1S,3R)-3-(3-methyl-4H-1,2,4-triazol-4-yl)cyclohexyl]biphenyl-4-sulfonamide], the IC50 worked out at 1.9 nM.

For `CCc1cc(-c2ccc(OCC(F)(F)F)nn2)cc(S(=O)(=O)N[C@H]2CCC[C@@H](n3cnnc3)C2)c1` [Compound 3Bay, 3-ethyl-N-[(1S,3R)-3-(4H-1,2,4-triazol-4-yl)cyclohexyl]-5-[6-(2,2,2-trifluoroethoxy)pyridazin-3-yl]benzenesulfonamide], the concentration for half-maximal inhibition (IC50) is 5.7 nM.

`O=S(=O)(N[C@H]1CCC[C@@H](n2cnnc2)C1)c1cc(-c2ccc3nc(C4CC4)nn3c2)cc(C(F)(F)F)c1` [Compound 3Aaq, 3-(2-cyclopropyl[1,2,4]triazolo[1,5-a]pyridin-6-yl)-N-[(1S,3R)-3-(4H-1,2,4-triazol-4-yl)cyclohexyl]-5-(trifluoromethyl)benzenesulfonamide] gave an IC50 of 20 nM.

`O=S(=O)(N[C@H]1CCC[C@@H](n2cnnc2)C1)c1cc(F)cc(-c2ccccc2)c1` [Compound 3Fa, 5-fluoro-N-[(1S,3R)-3-(4H-1,2,4-triazol-4-yl)cyclohexyl]biphenyl-3-sulfonamide] returned a concentration for half-maximal inhibition (IC50) of 10 nM.

For `O=S(=O)(N[C@H]1CCC[C@@H](n2cnnc2)C1)c1cc(-c2cccc(F)n2)cc(C(F)(F)F)c1` [Compound 3Ax, 3-(6-fluoropyridin-2-yl)-N-[(1S,3R)-3-(4H-1,2,4-triazol-4-yl)cyclohexyl]-5-(trifluoromethyl)benzenesulfonamide], the half-inhibitory concentration (IC50) came to 4.6 nM. Against the preceding compound, the IC50 is about 2.2-fold lower.

On to “2-ethyl-N-[(1S,3R)-3-(4H-1,2,4-triazol-4-yl)cyclohexyl]biphenyl-4-sulfonamide [Compound 2Af]”, for which the concentration for half-maximal inhibition (IC50) worked out at 15 nM. This IC50 lies about 3.3-fold higher than the previous one.

Take `CCCCOc1ccc(S(=O)(=O)N[C@H]2CCC[C@@H](n3cnnc3C)C2)cc1` [Compound 2Nw, 4-butoxy-N-[(1S,3R)-3-(3-methyl-4H-1,2,4-triazol-4-yl)cyclohexyl]benzenesulfonamide]: the IC50 was found to be 2.8 nM.

Consider `O=S(=O)(N[C@H]1CCC[C@@H](n2cnnc2)C1)c1ccc(OCCCC(F)(F)F)cc1` [Compound 2Mac, N-[(1S,3R)-3-(4H-1,2,4-triazol-4-yl)cyclohexyl]-4-(4,4,4-trifluorobutoxy)benzenesulfonamide], for which the IC50 worked out at 8.3 nM.

Compound `O=S(=O)(N[C@H]1CCC[C@@H](n2cnnc2)C1)c1ccc(Oc2ccccc2)cc1` [Compound 2Mv, 4-phenoxy-N-[(1S,3R)-3-(4H-1,2,4-triazol-4-yl)cyclohexyl]benzenesulfonamide] came in with a half-inhibitory concentration (IC50) of 51 nM.

`CCc1cc(-c2cccc3cccnc23)cc(S(=O)(=O)N[C@H]2CCC[C@@H](n3cnnc3)C2)c1` [Compound 3Bd, 3-ethyl-5-quinolin-8-yl-N-[(1S,3R)-3-(4H-1,2,4-triazol-4-yl)cyclohexyl]benzenesulfonamide]: the IC50 is 0.9 nM.

Compound `Cc1cn(-c2ccc(S(=O)(=O)N[C@H]3CCC[C@@H](n4cnnc4C)C3)cc2)cn1` [Compound 2Nt, 4-(4-methyl-1H-imidazol-1-yl)-N-[(1S,3R)-3-(3-methyl-4H-1,2,4-triazol-4-yl)cyclohexyl]benzenesulfonamide] had a concentration for half-maximal inhibition (IC50) of 870 nM.

In turn, `O=S(=O)(N[C@H]1CCC[C@@H](n2cnnc2)C1)c1cc(-c2ccnc(F)c2)cc(C(F)(F)F)c1` [Compound 3Av, 3-(2-fluoropyridin-4-yl)-N-[(1S,3R)-3-(4H-1,2,4-triazol-4-yl)cyclohexyl]-5-(trifluoromethyl)benzenesulfonamide] returned a concentration for half-maximal inhibition (IC50) of 15 nM. Against the preceding compound, the IC50 is about 58-fold lower.

As to `CCCCOc1ccc(S(=O)(=O)N[C@H]2CCC[C@@H](n3cnnc3C3CC3)C2)c(F)c1` [Compound 2Oag, 4-butoxy-N-[(1S,3R)-3-(3-cyclopropyl-4H-1,2,4-triazol-4-yl)cyclohexyl]-2-fluorobenzenesulfonamide], the 50% inhibitory concentration (IC50) came to 7.2 nM.

Regarding “4′-(difluoromethoxy)-N-[(1R,5S)-3,3-difluoro-5-(4H-1,2,4-triazol-4-yl)cyclohexyl]-2-ethylbenzenesulfonamide [Compound 2Caf]”, the IC50 came to 12 nM.

On to `O=S(=O)(N[C@H]1CCC[C@@H](n2cnnc2)C1)c1cc(-c2ccc3ccc(OCC(F)(F)F)nc3c2)cc(C(F)(F)F)c1` [Compound 3Aag, N-[(1S,3R)-3-(4H-1,2,4-triazol-4-yl)cyclohexyl]-3-[2-(2,2,2-trifluoroethoxy)quinolin-7-yl]-5-(trifluoromethyl)benzenesulfonamide], for which the IC50 turned out to be 4.9 nM.

With `CCc1cc(-c2cccc(OC)c2)ccc1S(=O)(=O)N[C@H]1CCC[C@@H](n2cnnc2)C1` [Compound 2Ar, 3-ethyl-3′-methoxy-N-[(1S,3R)-3-(4H-1,2,4-triazol-4-yl)cyclohexyl]biphenyl-4-sulfonamide], the 50% inhibitory concentration (IC50) amounted to 27 nM.

The compound `CCc1cc(-c2cnc(N)nc2)ccc1S(=O)(=O)N[C@H]1CCC[C@@H](n2cnnc2)C1` [Compound 2Aj, 4-(2-aminopyrimidin-5-yl)-2-ethyl-N-[(1S,3R)-3-(4H-1,2,4-triazol-4-yl)cyclohexyl]benzenesulfonamide] gave an IC50 of 1060 nM. This IC50 is about 39-fold higher than that of the compound before.

As for `O=S(=O)(N[C@H]1CCC[C@@H](n2cnnc2)C1)c1cc(OC(F)(F)F)cc(-c2ccccc2)c1` [Compound 3Ea, N-[(1S,3R)-3-(4H-1,2,4-triazol-4-yl)cyclohexyl]-5-(trifluoromethoxy)biphenyl-3-sulfonamide], the half-inhibitory concentration (IC50) was 10 nM.

As to `CCc1cc(-c2cccn3ccnc23)ccc1S(=O)(=O)N[C@H]1CCC[C@@H](n2cnnc2)C1` [Compound 2d, 2-ethyl-4-imidazo[1,2-a]pyridin-8-yl-N-[(1S,3R)-3-(4H-1,2,4-triazol-4-yl)cyclohexyl]benzenesulfonamide], the IC50 was 3.9 nM.

The compound `CCc1cc(-c2cc(Cl)cn3ccnc23)ccc1S(=O)(=O)N[C@H]1CCC[C@@H](n2cnnc2)C1` [Compound 2Aat, 4-(6-chloroimidazo[1,2-a]pyridin-8-yl)-2-ethyl-N-[(1S,3R)-3-(4H-1,2,4-triazol-4-yl)cyclohexyl]benzenesulfonamide] gave a concentration for half-maximal inhibition (IC50) of 2.2 nM.

Compound `Cc1cc(C)cc(S(=O)(=O)N[C@H]2CCC[C@@H](n3cnnc3)C2)c1` [Compound 2Me, 3,5-dimethyl-N-[(1S,3R)-3-(4H-1,2,4-triazol-4-yl)cyclohexyl]benzenesulfonamide] registered an IC50 of 194 nM.

Turning to `Cc1nncn1[C@@H]1CCC[C@H](NS(=O)(=O)c2ccc(-c3noc(C4CC4)n3)c(F)c2)C1` [Compound 2Fh, 4-(5-cyclopropyl-1,2,4-oxadiazol-3-yl)-3-fluoro-N-[(1S,3R)-3-(3-methyl-4H-1,2,4-triazol-4-yl)cyclohexyl]benzenesulfonamide], the IC50 is 9.9 nM.
